Experimental data reported in the NIST ThermoML archive (doi:10.1021/je900732r).

Assay: mn = molality of the nth substance listed, in mol/kg
Details: 101 kPa, Liquid

C[S+](C)[O-] [dimethyl sulfoxide] + [Co+2].[O-][Cl+3]([O-])([O-])[O-].[O-][Cl+3]([O-])([O-])[O-]
m2 = 0
Details	mass density [kg/m3]
293.15 K	1100.22
298.15 K	1095.19
303.15 K	1090.18
313.15 K	1080.12
323.15 K	1070.08
333.15 K	1060.03

[Mn+2].[O-][Cl+3]([O-])([O-])[O-].[O-][Cl+3]([O-])([O-])[O-] [manganese (II) perchlorate] + C[S+](C)[O-]
mass density [kg/m3]
Details	293.15 K	298.15 K	303.15 K	313.15 K	323.15 K	333.15 K
m1 = 0.01626	1103.52	1098.5	1093.49	1083.46	1073.44	1063.42
m1 = 0.0211	1104.5	1099.48	1094.47	1084.45	1074.44	1064.43
m1 = 0.02843	1105.99	1100.98	1095.97	1085.96	1075.96	1065.96
m1 = 0.037	1107.74	1102.73	1097.73	1087.73	1077.74	1067.75
m1 = 0.04758	1109.9	1104.9	1099.91	1089.92	1079.94	1069.97
m1 = 0.05763	1111.96	1106.97	1101.98	1092.01	1082.05	1072.09
m1 = 0.07358	1115.24	1110.26	1105.28	1095.33	1085.39	1075.45
m1 = 0.09456	1119.59	1114.62	1109.65	1099.73	1089.82	1079.91
m1 = 0.1139	1123.62	1118.65	1113.7	1103.8	1093.92	1084.04
m1 = 0.1337	1127.77	1122.82	1117.87	1108	1098.14	1088.29
m1 = 0.1569	1132.59	1127.65	1122.73	1112.88	1103.06	1093.24
m1 = 0.1754	1136.6	1131.67	1126.75	1116.94	1107.13	1097.34

[O-][Cl+3]([O-])([O-])[O-].[O-][Cl+3]([O-])([O-])[O-].[Zn+2] [zinc perchlorate] + C[S+](C)[O-]
mass density [kg/m3]
Details	293.15 K	298.15 K	303.15 K	313.15 K	323.15 K	333.15 K
m1 = 0.0168	1103.88	1098.86	1093.85	1083.82	1073.81	1063.78
m1 = 0.02409	1105.47	1100.46	1095.45	1085.43	1075.43	1065.41
m1 = 0.02918	1106.59	1101.58	1096.56	1086.56	1076.56	1066.55
m1 = 0.03465	1107.79	1102.78	1097.78	1087.77	1077.77	1067.77
m1 = 0.05104	1111.38	1106.39	1101.39	1091.4	1081.43	1071.45
m1 = 0.06794	1115.12	1110.13	1105.14	1095.18	1085.22	1075.26
m1 = 0.08574	1119.08	1114.1	1109.12	1099.17	1089.23	1079.3
m1 = 0.1022	1122.78	1117.8	1112.83	1102.91	1092.99	1083.08
m1 = 0.119	1126.55	1121.58	1116.62	1106.7	1096.8	1086.9
m1 = 0.1435	1132.09	1127.14	1122.19	1112.3	1102.43	1092.57
m1 = 0.1684	1137.8	1132.85	1127.91	1118.05	1108.21	1098.37

C[S+](C)[O-] [dimethyl sulfoxide] + [Cu+2].[O-][Cl+3]([O-])([O-])[O-].[O-][Cl+3]([O-])([O-])[O-]
m2 = 0
Details	mass density [kg/m3]
293.15 K	1100.23
298.15 K	1095.2
303.15 K	1090.18
313.15 K	1080.12
323.15 K	1070.08
333.15 K	1060.04

CO [methanol] + [Co+2].[O-][Cl+3]([O-])([O-])[O-].[O-][Cl+3]([O-])([O-])[O-]
m2 = 0
Details	mass density [kg/m3]
283.15 K	800.55
288.15 K	795.872
293.15 K	791.172
298.15 K	786.464
303.15 K	781.742
308.15 K	776.992
313.15 K	772.214

[Co+2].[O-][Cl+3]([O-])([O-])[O-].[O-][Cl+3]([O-])([O-])[O-] [cobalt(II) perchlorate] + C[S+](C)[O-]
mass density [kg/m3]
Details	293.15 K	298.15 K	303.15 K	313.15 K	323.15 K	333.15 K
m1 = 0.01481	1103.37	1098.35	1093.34	1083.31	1073.29	1063.26
m1 = 0.0215	1104.79	1099.78	1094.77	1084.75	1074.74	1064.73
m1 = 0.03236	1107.1	1102.1	1097.1	1087.09	1077.1	1067.1
m1 = 0.04309	1109.4	1104.4	1099.41	1089.42	1079.44	1069.46
m1 = 0.05528	1112.02	1107.03	1102.04	1092.06	1082.1	1072.14
m1 = 0.06505	1114.13	1109.14	1104.15	1094.2	1084.25	1074.3
m1 = 0.08726	1118.94	1113.97	1109	1099.07	1089.15	1079.22
m1 = 0.1069	1123.24	1118.27	1113.31	1103.39	1093.51	1083.61
m1 = 0.1285	1127.98	1123.03	1118.08	1108.19	1098.33	1088.47
m1 = 0.148	1132.32	1127.38	1122.44	1112.57	1102.73	1092.9
m1 = 0.1695	1137.12	1132.18	1127.26	1117.42	1107.6	1097.8
m1 = 0.1911	1141.97	1137.05	1132.14	1122.33	1112.53	1102.76
m1 = 0.2111	1146.48	1141.57	1136.67	1126.88	1117.12	1107.38

[Ni+2].[O-][Cl+3]([O-])([O-])[O-].[O-][Cl+3]([O-])([O-])[O-] [nickel perchlorate] + C[S+](C)[O-]
mass density [kg/m3]
Details	293.15 K	298.15 K	303.15 K	313.15 K	323.15 K	333.15 K
m1 = 0.01259	1102.91	1097.89	1092.88	1082.85	1072.82	1062.8
m1 = 0.01738	1103.94	1098.92	1093.91	1083.88	1073.87	1063.85
m1 = 0.02515	1105.61	1100.6	1095.59	1085.57	1075.56	1065.56
m1 = 0.03153	1106.98	1101.97	1096.96	1086.96	1076.96	1066.96
m1 = 0.03816	1108.41	1103.4	1098.4	1088.4	1078.41	1068.42
m1 = 0.051	1111.18	1106.18	1101.18	1091.2	1081.23	1071.27
m1 = 0.06341	1113.88	1108.88	1103.89	1093.92	1083.97	1074.01
m1 = 0.07675	1116.78	1111.79	1106.81	1096.86	1086.92	1076.99
m1 = 0.08797	1119.23	1114.24	1109.27	1099.34	1089.42	1079.5
m1 = 0.1004	1121.96	1116.98	1112.02	1102.1	1092.19	1082.3
m1 = 0.1126	1124.63	1119.67	1114.7	1104.8	1094.91	1085.03
m1 = 0.1251	1127.4	1122.43	1117.49	1107.6	1097.73	1087.86

C[S+](C)[O-] [dimethyl sulfoxide] + [Mn+2].[O-][Cl+3]([O-])([O-])[O-].[O-][Cl+3]([O-])([O-])[O-]
m2 = 0
Details	mass density [kg/m3]
293.15 K	1100.22
298.15 K	1095.19
303.15 K	1090.17
313.15 K	1080.12
323.15 K	1070.08
333.15 K	1060.04

C[S+](C)[O-] [dimethyl sulfoxide] + [O-][Cl+3]([O-])([O-])[O-].[O-][Cl+3]([O-])([O-])[O-].[Zn+2]
m2 = 0
Details	mass density [kg/m3]
293.15 K	1100.23
298.15 K	1095.2
303.15 K	1090.18
313.15 K	1080.12
323.15 K	1070.08
333.15 K	1060.04

[Cu+2].[O-][Cl+3]([O-])([O-])[O-].[O-][Cl+3]([O-])([O-])[O-] [copper perchlorate] + C[S+](C)[O-]
mass density [kg/m3]
Details	293.15 K	298.15 K	303.15 K	313.15 K	323.15 K	333.15 K
m1 = 0.01424	1103.32	1098.31	1093.29	1083.26	1073.23	1063.21
m1 = 0.01956	1104.48	1099.47	1094.46	1084.44	1074.42	1064.4
m1 = 0.02779	1106.27	1101.26	1096.26	1086.25	1076.24	1066.24
m1 = 0.03497	1107.84	1102.83	1097.83	1087.83	1077.83	1067.84
m1 = 0.0419	1109.35	1104.35	1099.36	1089.37	1079.36	1069.38
m1 = 0.05636	1112.53	1107.54	1102.54	1092.57	1082.6	1072.64
m1 = 0.07067	1115.69	1110.7	1105.71	1095.76	1085.8	1075.85
m1 = 0.08366	1118.57	1113.58	1108.61	1098.65	1088.72	1078.79
m1 = 0.09783	1121.71	1116.73	1111.75	1101.83	1091.91	1082
m1 = 0.1114	1124.76	1119.78	1114.82	1104.9	1095	1085.1
m1 = 0.1251	1127.83	1122.85	1117.89	1108	1098.11	1088.23
m1 = 0.1384	1130.82	1125.85	1120.9	1111.02	1101.14	1091.28
